# Measured values from patent US12428406B2 (PMV Pharmaceuticals, Inc., priority 2019, dated 2025).
# Biological target: T1, p53 Y220C (Homo sapiens, UniProt P04637, Y220C)
# T1 construct: The recombinant protein was a truncation mutant containing only amino acids 94-312 of p53; made in house; host or cells: E. coli
# Assay: In vitro DNA binding activity assay (HTRF / TR-FRET): stabilization of p53 Y220C and increase of its DNA binding activity
# Type: biochemical
# Conditions: recombinant His-tagged p53 Y220C DNA binding domain (aa 94-312), biotin-labeled consensus DNA, incubated at 27° C. or 29° C. for 60 min
# In short: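 Compound effect on DNA binding of recombinant His-p53 Y220C (E. coli) to biotin-labeled consensus DNA, expressed as SC150, the concentration giving 50% increase versus untreated. Serial 3-fold DMSO dilutions of 4.5 mM stocks; room-temperature steps of 15 then 20 min.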
# T1 sequence (P04637 94-312, change not shown): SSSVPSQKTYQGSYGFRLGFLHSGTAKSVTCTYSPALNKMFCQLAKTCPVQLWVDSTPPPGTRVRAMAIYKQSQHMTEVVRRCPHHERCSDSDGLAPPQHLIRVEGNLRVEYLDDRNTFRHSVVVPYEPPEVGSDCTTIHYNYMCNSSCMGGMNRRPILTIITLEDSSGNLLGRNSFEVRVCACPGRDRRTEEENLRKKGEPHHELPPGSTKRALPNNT
row,Structure (SMILES),SC150 (concentration of the compound required to increase the DNA binding activity by 50%)
1,COC[C@H](O)CN1CC[C@H](Nc2cccc3c2cc(C#CCNc2ccc(C(=O)OC)cc2OC)n3CC(F)(F)F)[C@H](F)C1 [Compound 879A],+ (+ = 0 μM ≤ SC150 < 0.05 μM)
2,"COCC(O)CN1CCC(Nc2c(OC)ccc3c2cc(C#CCNc2ccc(S(C)(=O)=O)cc2OC)n3CC(F)(F)F)CC1 (stereo not drawn) [Compound 643A, 1-{4-[(2-{3-[(4-methanesulfonyl-2-methoxyphenyl)amino]prop-1-yn-1-yl}-5-methoxy-1-(2,2,2-trifluoroethyl)-1H-indol-4-yl)amino]piperidin-1-yl}-3-methoxypropan-2-ol]",+++ (+++ = 0.1 μM ≤ SC150 < 0.2 μM)
3,"CNC(=O)c1ccc(NCC#Cc2cc3c(N[C@H]4CC[C@@H](N5CC6(COC6)C5)CC4)cccc3n2CC(F)(F)F)c(OCCF)c1 [Compound 241A, 3-(2-fluoroethoxy)-N-methyl-4-{[3-(4-{[(1S,4S)-4-{2-oxa-6-azaspiro[3.3]heptan-6-yl}cyclohexyl]amino}-1-(2,2,2-trifluoroethyl)-1H-indol-2-yl)prop-2-yn-1-yl]amino}benzamide]",+ (+ = 0 μM ≤ SC150 < 0.05 μM)
4,"COC(=O)c1ccc(NCC#Cc2cc3c(N[C@H]4CCN(C)C[C@H]4F)cccc3n2CC(F)(F)F)c(OC)c1 (racemic) [Compound 778A, rac-methyl 4-{[3-(4-{[(3R,4S)-3-fluoro-1-methylpiperidin-4-yl]amino}-1-(2,2,2-trifluoroethyl)-1H-indol-2-yl)prop-2-yn-1-yl]amino}-3-methoxybenzoate]",+ (+ = 0 μM ≤ SC150 < 0.05 μM)
5,"CS(=O)(=O)c1ccc(NCC#Cc2cc3c(N[C@H]4CC[C@H](N5CC6(CCOCC6)C5)CC4)cccc3n2CC(F)(F)F)c(OCF)c1 [Compound 324A, N-((1R,4R)-4-(7-oxa-2-azaspiro[3.5]nonan-2-yl)cyclohexyl)-2-(3-((2-(fluoromethoxy)-4-(methylsulfonyl)phenyl)amino)prop-1-yn-1-yl)-1-(2,2,2-trifluoroethyl)-1H-indol-4-amine]",+ (+ = 0 μM ≤ SC150 < 0.05 μM)
6,"CCC(=O)Oc1cc(S(C)(=O)=O)ccc1NCC#Cc1cc2c(NC3CCOCC3)cccc2n1CC(F)(F)F [Compound 1014A, 5-methanesulfonyl-2-[(3-{4-[(oxan-4-yl)amino]-1-(2,2,2-trifluoroethyl)-1H-indol-2-yl}prop-2-yn-1-yl)amino]phenyl propanoate]",+ (+ = 0 μM ≤ SC150 < 0.05 μM)
7,"COCC(O)CN1CCC(Nc2cccc3c2cc(C#CCNc2ccc(S(C)(=O)=O)cc2OCCO)n3CC(F)(F)F)CC1 (stereo not drawn) [Compound 644A, 1-(4-{[2-(3-{[2-(2-hydroxyethoxy)-4-methanesulfonylphenyl]amino}prop-1-yn-1-yl)-1-(2,2,2-trifluoroethyl)-1H-indol-4-yl]amino}piperidin-1-yl)-3-methoxypropan-2-ol]",+ (+ = 0 μM ≤ SC150 < 0.05 μM)
8,"COc1cc(S(C)(=O)=O)ccc1NCC#Cc1cc2c(NC(C)=O)cccc2n1CC(F)(F)F [Compound 5A, N-(2-{3-[(4-methanesulfonyl-2-methoxyphenyl)amino]prop-1-yn-1-yl}-1-(2,2,2-trifluoroethyl)-1H-indol-4-yl)acetamide]",++++ (++++ = 0.2 μM ≤ SC150 < 1 μM)
9,"CCOc1cc(S(C)(=O)=O)ccc1NCC#Cc1cc2c(N[C@H]3CC[C@H](N4CC5(CCOCC5)C4)CC3)cccc2n1CC(F)(F)F [Compound 329A, N-((1R,4R)-4-(7-oxa-2-azaspiro[3.5]nonan-2-yl)cyclohexyl)-2-(3-((2-ethoxy-4-(methylsulfonyl)phenyl)amino)prop-1-yn-1-yl)-1-(2,2,2-trifluoroethyl)-1H-indol-4-amine]",+ (+ = 0 μM ≤ SC150 < 0.05 μM)
10,"CNC(=O)c1ccc(NCC#Cc2cc3c(N[C@@H]4CCN(C(C)(C)C)C[C@@H]4F)cccc3n2CC(F)(F)F)c(OC)c1 [Compound 1072A, 4-{[3-(4-{[(3S,4R)-1-tert-butyl-3-fluoropiperidin-4-yl]amino}-1-(2,2,2-trifluoroethyl)-1H-indol-2-yl)prop-2-yn-1-yl]amino}-3-methoxy-N-methylbenzamide]",+ (+ = 0 μM ≤ SC150 < 0.05 μM)
11,"COc1cc(S(N)(=O)=O)ccc1NCC#Cc1cc2c(NC3CCN(CC(C)OC(=O)C(C)C)CC3)cccc2n1CC(F)(F)F (stereo not drawn) [Compound 598A, 1-{4-[(2-{3-[(2-methoxy-4-sulfamoylphenyl)amino]prop-1-yn-1-yl}-1-(2,2,2-trifluoroethyl)-1H-indol-4-yl)amino]piperidin-1-yl}propan-2-yl 2-methylpropanoate]",+ (+ = 0 μM ≤ SC150 < 0.05 μM)
12,"COc1cc(C(N)=O)ccc1NCC#Cc1cc2c(N[C@H]3CCNC[C@H]3F)cccc2n1CC(F)(F)F [Compound 868A, 4-{[3-(4-{[(3R,4S)-3-fluoropiperidin-4-yl]amino}-1-(2,2,2-trifluoroethyl)-1H-indol-2-yl)prop-2-yn-1-yl]amino}-3-methoxybenzamide]",+ (+ = 0 μM ≤ SC150 < 0.05 μM)
13,CN1CC[C@@H](Nc2cccc3c2cc(C#CCNc2ccc(S(C)(=O)=O)cc2OCF)n3CC(F)(F)F)[C@@H](F)C1 [Compound 842A],+ (+ = 0 μM ≤ SC150 < 0.05 μM)
14,"CNC(=O)c1ccc(NCC#Cc2cc3c(NC4CCN(CC(O)COC)CC4)cccc3n2CC(F)(F)F)c(OC)c1 (stereo not drawn) [Compound 601A, 4-{[3-(4-{[1-(2-hydroxy-3-methoxypropyl)piperidin-4-yl]amino}-1-(2,2,2-trifluoroethyl)-1H-indol-2-yl)prop-2-yn-1-yl]amino}-3-methoxy-N-methylbenzamide]",+ (+ = 0 μM ≤ SC150 < 0.05 μM)
15,"CNC(=O)c1ccc(NCC#Cc2cc3c(N[C@H]4CC[C@H](N5CCCC(OC)C5)CC4)cccc3n2CC(F)(F)F)c(OC)c1 (stereo partly drawn) [Compound 356A, 3-methoxy-N-methyl-4-{[3-(4-{[(1R,4R)-4-(3-methoxypiperidin-1-yl)cyclohexyl]amino}-1-(2,2,2-trifluoroethyl)-1H-indol-2-yl)prop-2-yn-1-yl]amino} benzamide]",+ (+ = 0 μM ≤ SC150 < 0.05 μM)
16,"N#CCOc1cc(S(N)(=O)=O)ccc1NCC#Cc1cc2c(NC3CCC(N4CC5(COC5)C4)CC3)cccc2n1CC(F)(F)F [Compound 259A, 3-(cyanomethoxy)-4-{[3-(4-{[(1R,4R)-4-{2-oxa-6-azaspiro[3.3]heptan-6-yl}cyclo-hexyl]amino}-1-(2,2,2-trifluoroethyl)-1H-indol-2-yl)prop-2-yn-1-yl]amino}benzene-1-sulfonamide]",+ (+ = 0 μM ≤ SC150 < 0.05 μM)
17,"COc1cc(S(C)(=O)=O)ccc1NCC#Cc1cc2c(NC3CCCN(C)CC3)cccc2n1CC(F)(F)F (stereo not drawn) [Compound 988A, 2-{3-[(4-methanesulfonyl-2-methoxyphenyl)amino]prop-1-yn-1-yl}-N-(1-methylazepan-4-yl)-1-(2,2,2-trifluoroethyl)-1H-indol-4-amine]",+ (+ = 0 μM ≤ SC150 < 0.05 μM)
18,"COc1cc(S(C)(=O)=O)ccc1NCC#Cc1cc2c(N[C@@H]3CCCNC3)cccc2n1CC(F)(F)F [Compound 463A, 2-{3-[(4-methanesulfonyl-2-methoxyphenyl)amino]prop-1-yn-1-yl}-N-[(3R)-piperidin-3-yl]-1-(2,2,2-trifluoroethyl)-1H-indol-4-amine]",+ (+ = 0 μM ≤ SC150 < 0.05 μM)
19,"COc1cc(S(N)(=O)=O)ccc1NCC#Cc1cc2c(N[C@H]3CC[C@H](N4CCS(=O)(=O)CC4)CC3)cccc2n1CC(F)(F)F [Compound 372A, 3-methoxy-4-{[3-(4-{[(1R,4R)-4-(1,1-dioxo-1λ^6-thiomorpholin-4-yl)cyclohexyl]amino}-1-(2,2,2-trifluoroethyl)-1H-indol-2-yl)prop-2-yn-1-yl]amino}benzene-1-sulfonamide]",+ (+ = 0 μM ≤ SC150 < 0.05 μM)
20,"COc1cc(S(C)(=O)=O)ccc1NCC#Cc1cc2c(N[C@H]3CC[C@H](N4CCC(C(F)(F)F)CC4)CC3)cccc2n1CC(F)(F)F [Compound 436A, 2-{3-[(4-methane-sulfonyl-2-methoxy-phenyl)amino]prop-1-yn-1-yl}-N-[(1R,4R)-4-[4-(trifluoromethyl)piperidin-1-yl]cyclohexyl]-1-(2,2,2-trifluoroethyl)-1H-indol-4-amine]",+ (+ = 0 μM ≤ SC150 < 0.05 μM)
21,"CN1CCC(Nc2cccc3c2cc(C#CCNc2ccc(S(C)(=O)=O)cc2OCF)n3CC(F)(F)F)CC1 [Compound 490A, 2-(3-{[2-(fluoromethoxy)-4-methanesulfonylphenyl]amino}prop-1-yn-1-yl)-N-(1-methylpiperidin-4-yl)-1-(2,2,2-trifluoroethyl)-1H-indol-4-amine]",+ (+ = 0 μM ≤ SC150 < 0.05 μM)
22,COc1cc(S(C)(=O)=O)ccc1NCC#Cc1cc2c(NC3CCC(N)CC3F)cccc2n1CC(F)(F)F (stereo not drawn) [Compound 37A],+ (+ = 0 μM ≤ SC150 < 0.05 μM)
23,CCCn1c(C#CCNc2ccc(S(C)(=O)=O)cc2OC)cc2c(N[C@H]3CCN(C[C@@H](O)COC)C[C@H]3F)cccc21 (racemic) [Compound 884A],+ (+ = 0 μM ≤ SC150 < 0.05 μM)
24,"CCC(=O)N1CC[C@H](Nc2cccc3c2cc(C#CCNc2ccc(S(C)(=O)=O)cc2OC)n3CC(F)(F)F)[C@H](F)C1 [Compound 865A, 1-[(3R,4S)-3-fluoro-4-[(2-{3-[(4-methanesulfonyl-2-methoxyphenyl)amino]prop-1-yn-1-yl}-1-(2,2,2-trifluoroethyl)-1H-indol-4-yl)amino]piperidin-1-yl]propan-1-one]",+ (+ = 0 μM ≤ SC150 < 0.05 μM)
